Data published in ChEMBL document CHEMBL5543086, “Discovery of novel NSAID hybrids as cPLA2/COX-2 dual inhibitors alleviating rheumatoid arthritis via inhibiting p38 MAPK pathway” (Eur J Med Chem, 2024).
Activity calls are given as the source filed them.

What was measured:
RAW264.7 [1] = assay: Antiinflammatory activity against LPS-induced mouse RAW264.7 cells assessed as inhibition of iNOS protein expression pretreated for 1 hr followed by LPS stimulation and measured after 24 hrs by Western blot analysis; assay type: functional, cell-based; conditions: dose 2.5-10 µM, time 25.0 hrs
RAW264.7 [2] = assay: Antiinflammatory activity against LPS-induced mouse RAW264.7 cells assessed as inhibition of cPLA2 protein expression pretreated for 1 hr followed by LPS stimulation and measured after 24 hrs by Western blot analysis; assay type: functional, cell-based; conditions: dose 2.5-10 µM, time 25.0 hrs
RAW264.7 [3] = assay: Antiinflammatory activity against LPS-induced mouse RAW264.7 cells assessed as inhibition of phosphorylated p38 MAPK protein expression pretreated for 1 hr followed by LPS stimulation and measured after 24 hrs by Western blot analysis; assay type: functional, cell-based; conditions: dose 2.5-10 µM, time 25.0 hrs
Rattus norvegicus [4] = assay: Antiarthritic activity in Freund's complete adjuvant induced Lewis rat model of arthritis assessed as inhibition of left hind paw edema at 20 mg/kg, po administered every 24 to 48 hrs for 28 days post immunization starting from day 8 post immunization; assay type: functional, organism-based; conditions: time 21.0 day
Rattus norvegicus [5] = assay: Antiarthritic activity in Freund's complete adjuvant induced Lewis rat model of arthritis assessed as reduction in arthritis score at 20 mg/kg, po administered every 24 to 48 hrs for 28 days post immunization starting from day 8 post immunization; assay type: functional, organism-based; conditions: time 21.0 day
Rattus norvegicus [6] = assay: Antiarthritic activity in Freund's complete adjuvant induced Lewis rat model of arthritis assessed as reduction in joint deformities induced walking and polyarthritis symptoms at 20 mg/kg, po administered every 24 to 48 hrs for 28 days post immunization starting from day 8 post immunization; assay type: functional, organism-based; conditions: time 21.0 day
Rattus norvegicus [7] = assay: Analgesic activity in Freund's complete adjuvant induced Lewis rat model of arthritis assessed as increase in mechanical paw withdrawal threshold at 20 mg/kg, po administered every 24 to 48 hrs for 28 days post immunization starting from day 8 post immunization; assay type: functional, organism-based; conditions: time 21.0 day
Mus musculus = species: Mus musculus; assay: Antiinflammatory activity in mouse model of cotton pellet implantation-induced granuloma; assay type: functional, organism-based
Rattus norvegicus [8] = assay: Immunomodulatory activity in Freund's complete adjuvant induced Lewis rat model of arthritis assessed as increase in CD4positive CD25positive Treg cells in peripheral blood at 20 mg/kg, po administered every 24 hrs for 28 days post immunization starting from day 8 post immunization by flow cytometry analysis; assay type: functional, organism-based; conditions: time 21.0 day
Rattus norvegicus [9] = assay: Immunomodulatory activity in Freund's complete adjuvant induced Lewis rat model of arthritis assessed as increase in CD4positive CD25positive Treg cells in spleen at 20 mg/kg, po administered every 24 hrs for 28 days post immunization starting from day 8 post immunization by flow cytometry analysis; assay type: functional, organism-based; conditions: time 21.0 day
Rattus norvegicus [10] = assay: Immunomodulatory activity in Freund's complete adjuvant induced Lewis rat model of arthritis assessed as increase in anti-IL-10 antibody expression in knee joint slices at 20 mg/kg, po administered every 24 to 48 hrs for 28 days post immunization starting from day 8 post immunization by immunohistochemistry analysis; assay type: functional, organism-based; conditions: time 21.0 day
Rattus norvegicus [11] = assay: (§1) Antiarthritic activity in Freund's complete adjuvant induced Lewis rat model of arthritis assessed as reduction in joint tissue damage by measuring reduction in inflammatory cell infiltration at 20 mg/kg, po administered every 24 hrs for 28 days post immunization starting from day 8 post immunization by H and E staining based analysis; assay type: functional, organism-based; conditions: time 21.0 day
Rattus norvegicus [12] = assay: as §1, with “synovial hyperplasia” for “inflammatory cell infiltration”; assay type: functional, organism-based; conditions: time 21.0 day
Rattus norvegicus [13] = assay: Antiarthritic activity in Freund's complete adjuvant induced Lewis rat model of arthritis assessed as reduction in IL-17 protein expression at 20 mg/kg, po administered every 24 to 48 hrs for 28 days post immunization starting from day 8 post immunization by Western blot analysis; assay type: functional, organism-based; conditions: time 21.0 day
[14] = Toxicity in male Wistar rat assessed as gastrointestinal damage by measuring number of ulcers at 50 mg/kg administered by gavage and measured after 6 hrs (reference value: 0); assay type: organism-based; conditions: in vivo, po
[15] = Toxicity in male Wistar rat assessed as gastrointestinal damage by measuring level-1 ulcers with <1 mm area at 100 mg/kg administered by gavage and measured after 6 hrs; assay type: organism-based; conditions: in vivo, po
[16] = Toxicity in male Wistar rat assessed as gastrointestinal damage by measuring level-3 ulcers with >3 mm area at 50 mg/kg administered by gavage and measured after 6 hrs; assay type: organism-based; conditions: in vivo, po
[17] = Toxicity in male Wistar rat assessed as gastrointestinal damage by measuring ulcer index at 50 mg/kg administered by gavage and measured after 6 hrs; assay type: organism-based; conditions: in vivo, po
[18] = Toxicity in male Wistar rat assessed as gastrointestinal damage by measuring ulcer index at 100 mg/kg administered by gavage and measured after 6 hrs; assay type: organism-based; conditions: in vivo, po
[19] = Hepatotoxicity in male Wistar rat assessed as effect on glutamic oxalacetic transaminase level at 20 mg/kg, po administered for 3 days; assay type: toxicity, organism-based; conditions: in vivo, 72 h, time 3 day
[20] = biological target: T1, Cytosolic phospholipase A2 (Mus musculus) (UniProt P47713); assay: Binding affinity to cPLA2 in LPS-induced mouse RAW264.7 cells assessed as thermal stability at 45 to 53 degreeC at 30 uM pretreated with LPS for 24 hrs followed by compound addition and measured after 2 hrs by CETSA; assay type: cell-based
T1 sequence (whole entry): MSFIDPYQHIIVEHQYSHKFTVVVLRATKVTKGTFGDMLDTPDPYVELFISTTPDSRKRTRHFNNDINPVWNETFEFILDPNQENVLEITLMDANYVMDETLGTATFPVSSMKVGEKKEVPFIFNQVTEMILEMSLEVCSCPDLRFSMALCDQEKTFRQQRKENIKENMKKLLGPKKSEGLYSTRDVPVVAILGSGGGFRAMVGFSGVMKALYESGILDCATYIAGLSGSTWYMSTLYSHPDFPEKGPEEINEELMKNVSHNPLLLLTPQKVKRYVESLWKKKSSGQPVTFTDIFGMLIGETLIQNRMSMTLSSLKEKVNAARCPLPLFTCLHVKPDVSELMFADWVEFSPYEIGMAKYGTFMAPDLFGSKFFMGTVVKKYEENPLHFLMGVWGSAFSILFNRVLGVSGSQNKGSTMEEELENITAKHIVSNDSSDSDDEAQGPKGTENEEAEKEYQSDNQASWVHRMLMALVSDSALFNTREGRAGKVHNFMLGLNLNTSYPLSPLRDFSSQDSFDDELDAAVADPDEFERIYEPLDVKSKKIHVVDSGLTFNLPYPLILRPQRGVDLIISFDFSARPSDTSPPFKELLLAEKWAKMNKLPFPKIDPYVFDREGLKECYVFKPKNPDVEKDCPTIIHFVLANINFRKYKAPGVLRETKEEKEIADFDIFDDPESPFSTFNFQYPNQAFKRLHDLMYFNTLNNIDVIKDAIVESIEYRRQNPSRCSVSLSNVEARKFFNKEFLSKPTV

Question: What does the source list for CCCCC/C=C\C/C=C\C/C=C\C/C=C\CC/C=C(/OC(=O)C(C)c1ccc(C(=O)c2ccccc2)cc1)C(F)(F)F (stereo unspecified)?
Answer: Activity (RAW264.7 [1]): Dose-Dependent Effect; Activity (RAW264.7 [2]): Dose-Dependent Effect; Activity (RAW264.7 [3]): Dose-Dependent Effect; Activity (Rattus norvegicus [4]): Active; Activity (Rattus norvegicus [5]): Active; Activity (Rattus norvegicus [6]): Active; Activity (Rattus norvegicus [7]): Active; Activity (Mus musculus): Active; Activity (Rattus norvegicus [8]): Active; Activity (Rattus norvegicus [9]): Active; Activity (Rattus norvegicus [10]): Active; Activity (Rattus norvegicus [11]): Active; Activity (Rattus norvegicus [12]): Active; Activity (Rattus norvegicus [13]): Active; Activity [14]: 0; Activity [15]: 86%; Activity [16]: 0%; UI [17]: 0; UI [18]: 8; Activity [19]: Non-Toxic; Activity [20]: Active
